Reference: PMC12040169 (PLOS Biology, 2025)

Test: in vitro
Conditions: human, hela cells, % viability

Q: Which viability at 28.5 h, 10 µM does the source give for `CCOC(=O)c1c(NC(=O)CSc2ncnc3sc(C)c(C)c23)sc(C)c1C` [CBK266440] here?
A: 118%

Q: With `Cc1ccc(-c2cc(C(=O)NCc3ccc(-c4ccc(C(N)=O)c(C)n4)cc3)no2)cc1` [CBK285644] as the compound, how does the viability at 28.5 h, 10 µM read?
A: 116%

Q: For `CC(NC(=O)Nc1ccc(C(=O)NC(C)(C)C)cc1)c1cccc(Cl)c1` (centres unmarked) [CBK298265], which viability at 28.5 h, 10 µM is on record?
A: 87.8%

Q: For `CC(CC(=O)O)CC(=O)N1CCCC1c1nc(-c2ccc(F)cc2)c2ccccn12` (centres unmarked) [CBK046626], which viability at 28.5 h, 10 µM is on record?
A: 99.4%

Q: Which viability at 28.5 h, 10 µM does the source give for `Cc1cc(O)c(C(C)C)cc1N1C(=O)c2ccc([N+](=O)[O-])cc2C1=O` [CBK115323] here?
A: 97.7%

Q: Which viability at 28.5 h, 10 µM does the source give for `CCOC(=O)C1(NC(=O)C2(Oc3cccnc3C)CCNCC2)CCC1` [CBK306688] here?
A: 89.9%

Q: For `Cc1ccc(S(=O)(=O)Nc2c(C(=O)N3CCN(C)CC3)[nH]c3ccccc23)cc1[N+](=O)[O-]` [CBK050060], which viability at 28.5 h, 10 µM is on record?
A: 90.1%

Q: For `Cc1ccc(C(=O)O)cc1NC(=O)C(=O)NCC(c1ccccc1)N1CCN(C)CC1` (centres unmarked) [CBK286864], which viability at 28.5 h, 10 µM is on record?
A: 92.4%

Q: For `O=C(Nc1ccccc1Cl)N1CCN(CCN2CCOCC2)CC1` [CBK155824], which viability at 28.5 h, 10 µM is on record?
A: 89.4%

Q: For `O=C(NCc1cccc2ccccc12)C1(c2ccccc2)CCCC1` [CBK149534], which viability at 28.5 h, 10 µM is on record?
A: 96.6%

Q: With `COc1cccc(CNCCN2CCOCC2)c1O` [CBK278183C] as the compound, how does the viability at 28.5 h, 10 µM read?
A: 90.2%

Q: With `COc1ccc(Cn2c(=O)n(C(=O)CCc3cccc(OC)c3)c3ccccc32)cc1` [CBK106557] as the compound, how does the viability at 28.5 h, 10 µM read?
A: 113%

Q: For `Cn1cc(CC(=O)N2CCN(c3ccccc3)CC2)c2ccccc21` [CBK200168], which viability at 28.5 h, 10 µM is on record?
A: 95.8%

Q: For `CN(C(=O)COC(=O)c1cc(-c2ccco2)nc2ccccc12)C1(C#N)CCCCC1` [CBK295591], which viability at 28.5 h, 10 µM is on record?
A: 93.2%

Q: With `CCOc1ccsc1C(=O)Nc1ccccc1N1CCCNCC1` [CBK036354T] as the compound, how does the viability at 28.5 h, 10 µM read?
A: 95.7%

Q: With `O=C(NCCN1CCOCC1)N1CCN(c2ccccc2)CC1` [CBK155180] as the compound, how does the viability at 28.5 h, 10 µM read?
A: 83.8%

Q: With `CCCCc1ccc(S(=O)(=O)n2ccc3c(N4CCNCC4)nccc32)cc1` [CBK045805C] as the compound, how does the viability at 28.5 h, 10 µM read?
A: 100%

Q: For `Cc1nc2c([N+](=O)[O-])c3c(c([N+](=O)[O-])c2[nH]1)Nc1nonc1N3` [CBK261069], which viability at 28.5 h, 10 µM is on record?
A: 107%

Q: With `CC(C)CC(=O)NCCn1nc(-c2ccccc2F)cc1CN(C)C` [CBK282005] as the compound, how does the viability at 28.5 h, 10 µM read?
A: 97.4%

Q: Which viability at 28.5 h, 10 µM does the source give for `COCCCN(Cc1cc(F)cc(F)c1)Cc1ccccn1` [CBK282975] here?
A: 100%

Q: For `COCCCN(Cc1ccccn1)Cc1ccc(F)cc1F` [CBK282974], which viability at 28.5 h, 10 µM is on record?
A: 103%

Q: For `O=C(NC1CCCC1)c1ccc2ncccc2c1` [CBK200118], which viability at 28.5 h, 10 µM is on record?
A: 90.2%

Q: For `N#Cc1cccc(C(=O)NCCc2cn3c(n2)CCCC3)c1` [CBK305046], which viability at 28.5 h, 10 µM is on record?
A: 93.9%

Q: With `Cc1nn(-c2ccccc2)c2[nH]c(=O)c(CNC3CCC3)cc12` [CBK282897] as the compound, how does the viability at 28.5 h, 10 µM read?
A: 103%

Q: Which viability at 28.5 h, 10 µM does the source give for `[O-][n+]1cc(-c2ccccc2)[n+]([O-])c2c1CCCC2` [CBK264847] here?
A: 98.7%

Q: For `CC1=C(C#N)c2nc(N)c(C#N)c(C)c2/C1=C\c1ccc(-c2ccc(C(=O)O)cc2)o1` [CBK263415], which viability at 28.5 h, 10 µM is on record?
A: 105%

Q: Which viability at 28.5 h, 10 µM does the source give for `COC(=O)CCc1ccc(S(=O)(=O)N2CCCN(Cc3c[nH]c4ccc(OC)cc34)CC2)cc1` [CBK062985] here?
A: 98.1%

Q: Which viability at 28.5 h, 10 µM does the source give for `Cc1cccc(CNc2nccnc2-c2ccncc2)c1` [CBK037453] here?
A: 99.3%

Q: With `CC1(C)CCN(Cc2nnnn2-c2ccc(S(C)(=O)=O)cc2)C1` [CBK306179] as the compound, how does the viability at 28.5 h, 10 µM read?
A: 94.7%

Q: For `CCNc1cc(-c2cccc(N(C)C)c2)ncn1` [CBK090878], which viability at 28.5 h, 10 µM is on record?
A: 97.8%

Q: With `COC(=O)c1ccc(-c2ccc(OC)c(OC)c2)nc1` [CBK160175T] as the compound, how does the viability at 28.5 h, 10 µM read?
A: 98.7%

Q: With `Cc1cccc(=O)n1CCCn1cc(C2CCOC2)nn1` (centres unmarked) [CBK307368] as the compound, how does the viability at 28.5 h, 10 µM read?
A: 100%

Q: Which viability at 28.5 h, 10 µM does the source give for `Cc1nn(-c2ccc(F)cc2)c2[nH]c(=O)c(CNC(C)(C)C)cc12` [CBK283120] here?
A: 102%

Q: For `CN1CCN(C(=O)c2ccccc2N(Cc2ccccc2)S(C)(=O)=O)CC1` [CBK266267], which viability at 28.5 h, 10 µM is on record?
A: 101%

Q: Which viability at 28.5 h, 10 µM does the source give for `CCOC(=O)C1(C2CCCCC2)CCN(C(=O)CCSC)CC1` [CBK136929] here?
A: 113%

Q: Which viability at 28.5 h, 10 µM does the source give for `CCN1CCN(Cc2c(C(C)C)[nH]c3ncccc23)CC1` [CBK285343] here?
A: 83.6%

Q: For `CNC(=O)c1oc(-c2ccc(OC)cc2)c(-c2ccc(OC)cc2)c1C(=O)NC` [CBK001956], which viability at 28.5 h, 10 µM is on record?
A: 90.9%

Q: With `CCOC(=O)c1c(NC(=S)NC(=O)c2cccc(Cl)c2)sc2c1CCCC2` [CBK264045] as the compound, how does the viability at 28.5 h, 10 µM read?
A: 88.2%

Q: For `COc1cc(C(=O)Nc2nnc(C3=COCCO3)o2)cc(OC)c1OC` [CBK287410], which viability at 28.5 h, 10 µM is on record?
A: 97.6%

Q: With `CN(C1=NS(=O)(=O)c2ccccc21)c1ccc(OC(=O)C2CC(=O)N(c3ccccc3)C2)cc1` (centres unmarked) [CBK263849] as the compound, how does the viability at 28.5 h, 10 µM read?
A: 87%

Q: With `Cc1cccnc1NC(=O)c1ccc(NCCc2ccccc2)c([N+](=O)[O-])c1` [CBK269543] as the compound, how does the viability at 28.5 h, 10 µM read?
A: 96.1%

Q: Which viability at 28.5 h, 10 µM does the source give for `O=C(CN1CCOCC1)N1CCN(C(=O)c2ccc(C(F)(F)F)cc2)C1` [CBK051555C] here?
A: 92.1%

Q: Which viability at 28.5 h, 10 µM does the source give for `O=C(Nc1nnc(-c2ccco2)o1)c1ccccc1` [CBK287420] here?
A: 96.3%

Q: With `COc1ccccc1N1CCN(CC2CN(c3ccccc3)c3ccccc3O2)CC1` (centres unmarked) [CBK066872C] as the compound, how does the viability at 28.5 h, 10 µM read?
A: 84.7%

Q: Which viability at 28.5 h, 10 µM does the source give for `CN1CCC(C(=O)Nc2cccc(Cn3cccn3)c2)C1` (centres unmarked) [CBK281991] here?
A: 100%

Q: Which viability at 28.5 h, 10 µM does the source give for `Cc1ccccc1C(=O)Nc1cccc(NC(=S)NC(=O)c2cccs2)c1` [CBK263895] here?
A: 93.1%

Q: For `CCCn1cnnc1C(C)NC(=O)N(C)Cc1nc2cccc(C)c2[nH]1` (centres unmarked) [CBK307551], which viability at 28.5 h, 10 µM is on record?
A: 112%

Q: For `CC(=O)N1CCc2cc(C(O)CN3CCCC4CCCCC43)ccc21` (centres unmarked) [CBK282924], which viability at 28.5 h, 10 µM is on record?
A: 93.6%

Q: With `CC(C)C(CNCc1ccsc1)c1ccnn1C` (centres unmarked) [CBK304821] as the compound, how does the viability at 28.5 h, 10 µM read?
A: 93.9%

Q: With `CN(C)C(=O)c1ccc(-c2ccc(COC3CCN(C(=O)Cc4ccc(F)cc4)CC3)c(S(C)(=O)=O)c2)cc1` [CBK155963] as the compound, how does the viability at 28.5 h, 10 µM read?
A: 96.1%

Q: Which viability at 28.5 h, 10 µM does the source give for `Cc1nn(-c2ccccn2)c(C)c1[C@@H]1C=C[C@@H](NS(C)(=O)=O)C1` [CBK289169] here?
A: 86.8%

Q: Which viability at 28.5 h, 10 µM does the source give for `CC(=O)NC[C@H]1CN(c2ccc(C3CNC3)c(F)c2)C(=O)O1` [CBK013035] here?
A: 82.8%

Q: Which viability at 28.5 h, 10 µM does the source give for `Cc1cc(-c2cnc(N)nc2)cc(C2CCCN(C(=O)COc3c(C)cccc3C)C2)n1` (centres unmarked) [CBK285933] here?
A: 103%

Q: With `Cc1cnc2c(Cl)c(C(=O)N3CCC4(CCCNC4)C3)nn2c1` (centres unmarked) [CBK307472] as the compound, how does the viability at 28.5 h, 10 µM read?
A: 116%

Q: With `N#CCCCN1CCC(Oc2nccnc2OCCN2C(=O)CCC2=O)CC1` [CBK084349] as the compound, how does the viability at 28.5 h, 10 µM read?
A: 99.4%

Q: For `O=[N+]([O-])c1ccc(S(=O)(=O)NCCSCc2cccc(Cl)c2)cc1` [CBK268066], which viability at 28.5 h, 10 µM is on record?
A: 107%

Q: For `COC(CNC(=O)Cn1nnnc1CN1CCC(C)CC1)c1cccs1` (centres unmarked) [CBK306958], which viability at 28.5 h, 10 µM is on record?
A: 109%

Q: Which viability at 28.5 h, 10 µM does the source give for `O=S(=O)(Oc1ccccc1)c1ccc2c(c1)Cc1cc(S(=O)(=O)Oc3ccccc3)ccc1-2` [CBK231928] here?
A: 88.5%

Q: For `Cc1cc(C2CCCN(C(=O)CC3OCCc4sccc43)C2)n[nH]1` (centres unmarked) [CBK305241], which viability at 28.5 h, 10 µM is on record?
A: 94.3%

Q: For `COc1ccc(CN(Cc2ccccc2OC)[C@@H]2COC[C@H]2c2ccc(F)cc2)cc1` [CBK286484], which viability at 28.5 h, 10 µM is on record?
A: 105%

Q: With `N#CCCSc1nnc(-c2cccnc2)n1Cc1ccccc1` [CBK267526] as the compound, how does the viability at 28.5 h, 10 µM read?
A: 100%

Q: For `COc1ccc(NC(=O)CSCc2cc(O)[nH]n2)cc1` [CBK268417], which viability at 28.5 h, 10 µM is on record?
A: 99.3%
